Experimental data published in BigSolDB 2.1.

N[C@H](Cc1c[nH]c2ccccc12)C(=O)O
solubility (mole fraction)
Conditions	283.15 K	288.15 K	293.15 K	298.15 K	303.15 K	308.15 K	313.15 K	318.15 K	323.15 K	328.15 K
in DMSO	–	–	0.00359	0.00381	0.00464	0.00551	0.00596	0.00705	0.00778	0.00911
in acetonitrile	5.75e-05	6.84e-05	8.14e-05	0.000107	0.000128	0.00015	0.000206	0.000241	0.000307	0.000372
in ethyl acetate	0.000238	0.000302	0.000376	0.000476	0.000541	0.000699	0.000837	0.00115	0.00141	0.0018
in ethylene glycol	0.00148	0.00167	0.00246	0.00318	0.00437	0.00547	0.00804	0.00999	0.0125	0.0161
in n-butanol	1.97e-05	2.21e-05	2.99e-05	3.52e-05	4.81e-05	5.68e-05	7.9e-05	9.26e-05	0.00012	0.000137
in n-octanol	1.36e-05	1.53e-05	1.88e-05	2.49e-05	2.8e-05	3.61e-05	4.02e-05	4.83e-05	5.87e-05	6.53e-05
in n-propanol	4.51e-05	6.23e-05	7.27e-05	8.69e-05	0.000111	0.000127	0.000157	0.000177	0.000219	0.000244
